Experimental data published in patent US20210380994A1, “LACTOCOCCUS LACTIS EXPRESSION SYSTEM FOR DELIVERING PROTEINS EFFICACIOUS FOR THE TREATMENT OF EPITHELIAL BARRIER FUNCTION DISORDERS” (Second Genome, Inc., priority 2018, published 2021).

Columns and labels:
[1] = tested on: HCT8 enterocyte and HT29-MTX goblet cell lines; assay: Oris Cell Migration assay (epithelial cell wound healing); format: cell-based, human; conditions: 48 hours; SG-11 1 μg/ml, EGF 30 ng/ml, staurosporine 100 nM; FIG. 2
Excerpt: The 96 well Oris Cell Migration assay containing plugs preventing cell attachment in the center of each well was used according to the manufacturer's instructions (Platypus Technologies. Madison, Wis.).
The migration assay plates were warmed to room temperature prior to use and plugs were removed rom 100% confluence wells prior to cell addition. The HCT8 enterocyte and HT29-MTX goblet cell lines were used at a 9:1 ratio with a total of 5×10^4 total cells added per well (4.5×10^4 HCT8 cells and 0.5×10^4 HT29-MTX cells). Cells were incubated at 37° C.+5% CO2 for 24 hours. Plugs were then removed from all control and sample wells. Control wells included cells treated with the diluent vehicle as the blank, 30 ng/ml epidermal growth factor (EGF) as the positive control, and 100 nM staurosporine as the negative control, all diluted in cRPMI. Sample wells contained SG-11 protein (SEQ ID NO:9) at a concentration of 1 μg/ml diluted in eRPMI. 100% and 0% wells were cultured in cRPMI. […] The green fluorescent viability dye Calcenin AM was added to all wells at a concentration of 0.5 μg/min PBS containing 0.9 mM CaCl2 and 0.5 mM MgCl2, incubated for 30 min at 37° C.+5% CO2, the dye was removed and cells were washed in PBS containing 0.9 mM CaCl2 and 0.5 mM MgCl2, and fluorescence was measured. […] Samples were normalized between 100% and 0% samples and values expressed as a percent growth.

[2] = tested on: human colonic epithelial cells (HCT8 enterocytes and HT29-MTX goblet cells); assay: trans-epithelial electrical resistance (TEER) assay, epithelial/monocyte co-culture disrupted by heat killed E. coli; format: cell-based; conditions: staurosporine 100 nM, control compound
Description: Assays were performed as described below in trans-well plates where co-cultures of multiple cell types were performed utilizing a permeable membrane to separate cells. In the apical (top) chamber, human colonic epithelial cells, consisting of a mixture of enterocytes and goblet cells, were cultured until cells obtained tight junction formation and barrier function capacity as assessed by measurement of trans-epithelial electrical resistance (TEER). In the basolateral chamber, monocytes were cultured separately. Epithelial […] were primed with inflammatory cytokines. The assays measured the effect of a therapeutic protein, e.g., SG-11, on epithelial barrier function, muc2 gene expression, and production of cytokines.
Cell culture. The HCT8 human enterocyte cell line (ATCC Cat. No. CCL-244) was maintained in RPMI-1640 medium supplemented with 10% fetal bovine seam, 100 IU/ml penicillin, 100 ? g/ml streptomycin, 10 ? g/ml gentamicin and 0.25 μg/ml amphotericin (cRPMI). […]
Epithelial cell culture. […] Epithelial cells were trypsinized from culture flasks and viable cells determined by trypan blue counting. […]
Co-culture assay. […] TEER readings were measured after the IFN-© treatment and were used as the pre-treatment TEER value. […]

[3] = mouse, in vivo, ip
Description: Eight-week old C57BL/6 mice were housed 5 animals per cage and given food and water ad libitum for 7 days. Following the 7-day acclimation period, treatments were initiated concurrently with addition of 2.5% DSS to the drinking water. […] The mice were treated with 2.5% DSS in their drinking water for 6 days. […] Fresh 2.5% DSS drinking water was prepared every 2 days.

[4] = tested on: C57BL/6 mice treated with DSS; assay: concurrent (prophylactic) DSS model of inflammatory bowel disease (Examples 4, 13A); format: in vivo; conditions: Example 4; 50 nmoles/kg i.p. b.i.d.
Description: On day six, mice were fasted for four hours and then orally gavaged with 600 mg/kg 4KDa dextran labeled with fluorescein isothiocyanate (FITC) [4KDa-FITC]. One hour after the 4KDa-FITC gavage, mice were euthanized, blood was collected, and FITC signal was measured in serum. […] The magnitude of 4KDa-FITC dextran translocation observed for SG-11 was similar to the positive control of Gly2-GLP2. Results are shown in FIG. 3, and are presented as mean±SEM. The graph in FIG. 3 represents data pooled from 3 independent experiments, each using 10 mice (n=30).
SG-11 was also assessed for its effects on the levels of lipopolysaccharide (LPS) binding protein (LBP) in the blood of the DSS animal with and without SG-11 administration. LBP, which has been linked to clinical disease activity in subjects with inflammatory bowel disease, was also measured by […] in the serum of mice tested in the DSS model described in this Example. […] Results are shown in FIG. 4, and are presented as mean±SEM. The graph in FIG. 4 represents data pooled from 3 independent experiments (n=30; each experiment using 10 mice).
Body weight was measured daily from mice included in the DSS model described in this Example. Percent change from starting weight on day 0 was determined for each mouse. […]
Colon length was measured in mice included in the DSS model described above. […]

[5] = tested on: C57BL/6 mice treated with DSS; assay: therapeutic DSS model of inflammatory bowel disease, treatment after 7 days DSS (Examples 5, 13B); format: in vivo
Description: Following a 7-day acclimation period, the mice were provided with drinking water containing 2.5% DSS for 7 days. Fresh 2.5% DSS water was prepared every 2 days during the 7 day DSS administration. For this therapeutic DSS study, SG-11 used to treat the animals was fused at its N-terminus to a FLAG Tag (DYKDDDDK; SEQ ID NO:32).
On day 7, normal drinking water was restored and i.p. treatments of 50 nmole/kg of SG-11 ([…]) or Gly2-GLP2 (0.2 mg/kg) were initiated. Treatments were administered twice a day (b.i.d.), with a morning and evening dose (every 8 and 16 hours) for six days.
Body weight was measured daily during the morning treatment. The colon tissue was then harvested and length was measured in centimeters and the tissue was weighed. Fecal material was flushed from the colon and residual PBS removed by gently running the colon tissue through a pair of forceps. The colon tissue was then weighed and colon weight to length ratio in mg/mm was determined. Following weight measurements proximal and distal colon tissue was banked for RNA and protein analysis and the remaining tissues was fixed in 10% neutral buffered formalin for histopathology. Statistical analysis was performed by a one-way ANOVA compared to DSS+vehicle for serum 4KDa-FITC translocation, scrum LBP concentrations, colon length, and colon weight to length ratio, while a two-way ANOVA was performed for analysis of body weight. In all analysis, a Fisher's LSD test for multiple comparisons was used. Graphs represent data pooled from two experiments, and are plotted as mean±SEM.
Histopathology analysis was performed on proximal and distal colon tissues from the therapeutic DSS model described above. Proximal (FIG. 13A) and distal (FIG. 13B) colon scores (range 0-4) are presented as well as the total score for the colon which represents the sum of proximal and distal colon scores (Range 0-8) (FIG. 13C). LMA=Loss of mucosal architecture, Edema=Edema, INF=Inflammation, TMI=Transmural inflammation, MH=Mucosal hyperplasia, DYS=Dysplasia. Graphs represent data pooled from two independent experiments, and are plotted as mean±SEM. Statistical analysis was performed by a one-way ANOVA compared to DSS+vehicle followed by a Fisher's LSD test for multiple comparisons. […]
At the end of each DSS model study, mice were fasted for 4 hours and then orally gavaged with 600 mg/kg 4KDa dextran labeled with FITC [4KDa-FITC]. One hour after the 4KDa-FITC gavage, mice were euthanized, blood was collected, and FITC signal was measured in serum. […]
Upon completion of the OSS models above. LBP levels were measured as an inflammation centric readout of barrier function following the protocol detailed in Example 5. […] LPS binding protein (LBP) levels were measured in serum using a commercially available ELISA Kit (Enzo Lift Sciences).

CN[C@@H]1C[C@H]2O[C@@](C)([C@@H]1OC)n1c3ccccc3c3c4c(c5c6ccccc6n2c5c31)C(=O)NC4 [staurosporine, reference compound]
percent growth (epithelial cell wound healing) [1]: suppressing cell proliferation | TEER [2]: drastic decrease in TEER

EGF: epidermal growth factor, positive control (NSDSECPLSHDGYCLHDGVCMYIEALDKYACNCVVGYIGERCQYRDLKWWELR; UniProt P01133 971-1023, looked up)
percent growth (epithelial cell wound healing) [1]: increasing proliferation

fluorescently labeled bovine serum albumin: fluorescently labeled bovine serum albumin used for tracking studies
time at which protein reached the colon [3]: 6 h

Gly2-GLP2 [reference compound]
colon length [4]: significant improvement in colon length | colon weight to length ratio [4]: significant improvement in colon weight to length ratios | histopathology: inflammation and transmural inflammation scores ([5]; Example 5): no change | histopathology: loss of mucosal architecture score ([5]; Example 5): modest, but significant reduction | serum LBP ([5]; Example 5, 50 nmole/kg i.p. b.i.d. six days after 7 days DSS, FLAG-tagged SG-11): no reduction in LBP | colon weight to length ratio ([5]; Example 13B, p<0.01): did not
